Source: ChEMBL document CHEMBL1201862, “PubChem BioAssay data set” (2004)
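Following 48 hours of exposure in 96-well plates, responses at five concentrations were used to interpolate endpoints linearly. GI50 marks 50% less growth.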 The source made the active and inactive calls. Cut-off read from the data, not from the text of the source: active = GI50 up to about 1.1 µM and inactive = higher.

What was measured:
Assay in all cases: DTP human tumour cell line panel, 48 h
SN12C = test system: SN12C
DLD-1 = test system: DLD-1
SK-MEL-28 = test system: SK-MEL-28
U-251 = test system: U-251
SNB-78 = test system: SNB-78
SK-MEL-5 = test system: SK-MEL-5
IGROV-1 = test system: IGROV-1
SNB-75 = test system: SNB-75
HT-29 = test system: HT-29
LOX IMVI = test system: LOX IMVI
UACC-62 = test system: UACC-62
SK-OV-3 = test system: SK-OV-3
HCT-15 = test system: HCT-15
OVCAR-3 = test system: OVCAR-3
ACHN = test system: ACHN
OVCAR-5 = test system: OVCAR-5
K562 = test system: K562
SK-MEL-2 = test system: SK-MEL-2
SF-539 = test system: SF-539
HCT-116 = test system: HCT-116
HOP-18 = test system: HOP-18
RPMI-8226 = test system: RPMI-8226
NCI-H23 = test system: NCI-H23
CCRF-CEM = test system: CCRF-CEM
UACC-257 = test system: UACC-257
786-0 = test system: 786-0
Malme-3M = test system: Malme-3M
M19-MEL = test system: M19-MEL
EKVX = test system: EKVX
COLO 205 = test system: COLO 205
NCI-H460 = test system: NCI-H460
HOP-92 = test system: HOP-92
OVCAR-4 = test system: OVCAR-4
SNB-19 = test system: SNB-19
XF498 = test system: XF498
CAKI-1 = test system: CAKI-1
SW-620 = test system: SW-620
A549 = test system: A549
RXF 393 = test system: RXF 393
TK-10 = test system: TK-10
KM12 = test system: KM12
A498 = test system: A498
UO-31 = test system: UO-31
M14 = test system: M14
SF-268 = test system: SF-268
DMS-114 = test system: DMS-114
KM-20L2 = test system: KM-20L2
MOLT-4 = test system: MOLT-4
OVCAR-8 = test system: OVCAR-8
NCI-H522 = test system: NCI-H522

`O=C1OC(c2ccccc2)=N/C1=C\c1ccc2ccccc2c1` was tested, and the GI50 (SN12C) was > 100 µM (inactive), the GI50 (DLD-1) was > 100 µM (inactive) and the GI50 (SK-MEL-28) was > 100 µM (inactive). For the same molecule, the GI50 (U-251) was > 100 µM (inactive), the GI50 (SNB-78) was > 100 µM (inactive) and the GI50 (SK-MEL-5) was > 100 µM (inactive). The GI50 (IGROV-1) was > 100 µM (inactive), the GI50 (SNB-75) was > 100 µM (inactive) and the GI50 (HT-29) was > 100 µM (inactive). For the same molecule, the GI50 (LOX IMVI) was > 100 µM (inactive), the GI50 (UACC-62) was > 100 µM (inactive) and the GI50 (SK-OV-3) was > 100 µM (inactive). For the same molecule, the GI50 (HCT-15) was > 100 µM, the GI50 (OVCAR-3) was > 100 µM (inactive) and the GI50 (ACHN) was > 100 µM (inactive). The GI50 (OVCAR-5) was > 100 µM (inactive), the GI50 (K562) was > 100 µM (inactive) and the GI50 (SK-MEL-2) was > 100 µM (inactive). The GI50 (SF-539) was > 100 µM (inactive), the GI50 (HCT-116) was > 100 µM (inactive) and the GI50 (HOP-18) was > 100 µM (inactive). The GI50 (RPMI-8226) was > 100 µM (inactive), the GI50 (NCI-H23) was > 100 µM (inactive) and the GI50 (CCRF-CEM) was > 100 µM (inactive). For the same molecule, the GI50 (UACC-257) was > 100 µM (inactive), the GI50 (786-0) was > 100 µM (inactive) and the GI50 (Malme-3M) was > 100 µM (inactive). For the same molecule, the GI50 (M19-MEL) was > 100 µM (inactive), the GI50 (EKVX) was > 100 µM (inactive) and the GI50 (COLO 205) was > 100 µM (inactive). The GI50 (NCI-H460) was > 100 µM (inactive), the GI50 (HOP-92) was > 100 µM (inactive) and the GI50 (OVCAR-4) was > 100 µM (inactive). The GI50 (SNB-19) was > 100 µM (inactive), the GI50 (XF498) was > 100 µM (inactive) and the GI50 (CAKI-1) was > 100 µM (inactive). For the same molecule, the GI50 (SW-620) was > 100 µM (inactive), the GI50 (A549) was > 100 µM (inactive) and the GI50 (RXF 393) was > 100 µM (inactive). For the same molecule, the GI50 (TK-10) was > 100 µM (inactive), the GI50 (KM12) was > 100 µM (inactive) and the GI50 (A498) was > 100 µM (inactive). For the same molecule, the GI50 (UO-31) was > 100 µM (inactive), the GI50 (M14) was > 100 µM (inactive) and the GI50 (SF-268) was > 100 µM (inactive). The GI50 (DMS-114) was > 100 µM (inactive), the GI50 (KM-20L2) was > 100 µM (inactive) and the GI50 (MOLT-4) was > 100 µM (inactive). The GI50 (OVCAR-8) was > 100 µM (inactive) and the GI50 (NCI-H522) was > 100 µM (inactive).
